1 compound from patent publication US7906520B2, “Methods for treating pain” (The General Hospital Corporation, priority 2003, dated 2011) can be followed below.

Experiment [1] concerns GTPCH-1 expression. In words: GTPCH-I in situ hybridization in DRG after SNI. The experiment is classed as in vivo. As to conditions: 14 days after SNI surgery, DAHP vs vehicle. From the text:
FIG. 27A is a series of photomicrographs of in situ hybridization of GTPCH-I in the ipsilateral (lesioned) and contralateral (control) dorsal root ganglia 3 days (top panel) and 14 days (bottom panel) after SNI surgery. FIG. 27B is a series of photomicrographs of GTPCH-I in situ hybridization 14 days after SNI surgery and treatment with either DAHP or vehicle control.

Experiment [2] deals with CFA-induced paw inflammation. Kind of experiment: CFA model of inflammatory pain: Hargreaves test and paw weight. The format is in vivo, rat. As to the method:
FIGS. 11A-11E are a series of graphs showing the effect of DHAP on thermal hyperalgesia in the CFA model which is a model for inflammatory pain. […] On the left end of the graph, two doses of DAHP (180 mg/kg i.p.) were injected, the first 30 minutes before injection of CFA into the hindpaw, the second 4 hours after CFA (indicated with arrows D1 and D2). On the right, a single dose (dotted arrow D1) of DAHP (180 mg/kg i.p.) was injected 24 h after induction of paw inflammation without any treatment during the first 24 h following CFA injection. […] In FIGS. 11C-11D, the effects of systemically administered DAHP (180 mg/kg i.p. single dose; 11C) are compared with the effects of a single intrathecal dose (1 mg/kg i.t.; 11D) which was administered via a lumbar spinal catheter. In both cases, treatment was started 24 hours after CFA injection into the hindpaw. Because of slightly different baseline levels (11C compared with 11D) effects of DAHP after i.p. and i.t. treatment are additionally presented as percentage change of paw withdrawal latency (FIG. 11E) to allow for a direct comparison of both routes of administration.
FIG. 12 is a bar graph showing the increase of the paw weight of the inflamed paw compared with the contralateral paw. Paw weight was determined 48 hours following CFA injection. The increase of the paw weight is a measure for the inflammatory paw edema and therefore allows assessment of paw inflammation.
FIGS. 15A and 15B show the effect of the sepiapterin reductase inhibitor, N-acetyl-serotonin (NAS) on thermal hyperalgesia in the CFA model. The paw withdrawal latency (PWL) to radiant heat (Hargreaves test) is a measure for the heat sensitivity. NAS treatment (single dose of 50 mg/kg i.p.) was started 24 hours after CFA injection into the hindpaw. Data are presented as percentage change of the PWL compared with the PWL of the non-inflamed contralateral paw. […] Paw weight was determined 48 hours following CFA injection. The increase of the paw weight is a measure for the inflammatory paw edema.
Hypersensitivity was induced using the CFA model of paw inflammation. In these experiments, BH4 was injected at time “zero” after measurement of baseline paw withdrawal latency.

Experiment [3] concerns SNI model, nNOS knockout mice. In words: SNI model in nNOS knockout and wild-type mice. The format is in vivo. As to conditions: mechanical or cold stimuli. As to the method:
In this figure, closed circles represent nNOS knockout mice with DAHP; open circles, nNOS knock out mice with vehicle; closed triangles, wild type mice with DAHP; and open triangles, wild type mice with vehicle. […] In this figure, closed triangles represent L-NAME administration; open circles, L-NAME+DAHP administration; closed circles, DAHP administration; and open triangles, vehicle administration. L-NAME was administered at 25 mg/kg, i.p., single dose, and DAHP was administered at 120 mg/kg, i.p., single dose. The antinociceptive efficacy of this high L-NAME dose is weaker (about 50%) than that of a moderate dose of DAHP.

Experiment [4] has as its system CCI model of neuropathic pain. Kind of experiment: Chronic constriction injury (CCI) model of neuropathic pain. The format is in vivo, rat. As to conditions: 180 mg/kg/d i.p. The protocol:
FIGS. 9A and 9B are two graphs showing the effect of DAHP on nociceptive behavior in the CCI model of neuropathic pain. […] DAHP treatment (180 mg/kg/d i.p. for 5 days) was started 3 days after surgery and nociceptive behavior was assessed daily before and after drug injection and once every second day after stopping daily drug injections.
All procedures were performed in accordance with Massachusetts General Hospital animal care regulations. Adult male Sprague Dawley rats (200-300 g) were anesthetized with halothane. For the sciatic nerve transection (axotomy), the left sciatic nerve was exposed at the mid thigh level, ligated with 3/0 silk, and sectioned distally. The wound was sutured in two layers, and the animals were allowed to recover. For SNI the tibial and peroneal branch of the sciatic nerve were ligated and transected whereas the sural nerve was spared. For CCI, the sciatic nerve was loosely ligated with dexon 4/0 (three ligatures) and for the spinal ligation model the L5 spinal segmental nerve was ligated.

Experiment [5] deals with formalin injection into the hindpaw. In words: Formalin test: flinching behavior and cFos immunoreactivity in dorsal horn. The format is in vivo, rat. The protocol:
DAHP (180 mg/kg) was injected i.p. one hour before injection of formalin into the hindpaw. Flinches were counted for one hour starting right after formalin injection. FIG. 24A is a series of photo micrographs showing cFos immunoreactivity in ipsilateral dorsal horn neurons two hours after formalin injection in DAHP and vehicle-treated rats. FIG. 24B is a bar graph quantifying the number of cFos immunoreactive cell bodies observed under each condition.

Experiment [6] has as its system dorsal horn neurons. In words: TUNEL staining of apoptotic profiles in L4/L5 dorsal horn after SNI. The format is in vivo. The following applies: DAHP 180 mg/kg/day i.p., 7 days after SNI. The protocol: FIG. 25 is a bar graph showing the number of apoptotic cell profiles, using TUNEL staining, observed in the L4/L5 dorsal horn 7 days after SNI surgery of animals treated with either 180 mg/kg/day DAHP or vehicle control. Apoptotic neurons were detected by in situ TUNEL labeling and counted by a blinded observer.

Experiment [7] has as its system BH4 biosynthesis. Kind of experiment: Tissue biopterin and neopterin levels after SNI (LC-MS/MS). The following applies: with DAHP administration. The experiment is classed as in vivo. The protocol:
FIG. 30 is a series of bar graphs quantifying the levels of the BH4 metabolites biopterin and neopterin in the DH, DRG, and ScN following SNI surgery with and without DAHP treatment, compared to control.
Using the preferred method, tissue neopterin and biopterin levels were determined with a liquid chromatography tandem mass spectrometry method. After acidic pH oxidation with iodine according to Fukushima and Nixon (Methods Enzymol. 66: 429-436, 1980) tissues were extracted by solid phase extraction employing Oasis MCX extraction cartridges and concentrations of total biopterin, neopterin and the internal standard rhamnopterin were determined by liquid chromatography coupled to tandem mass spectrometry. HPLC analysis was done under gradient conditions using a Nucleosil C8 column. MS/MS analyses were performed on an API 4000 Q TRAP triple quadrupole mass spectrometer with a Turbo Ion Spray source. Precursor-to-product ion transitions of m/z 236 192 for biopterin, m/z 252 192 for neopterin, m/z 265 192 for rhamnopterin were used for the MRM. Concentrations of the calibration standards, quality controls and samples were evaluated by Analyst software 1.4 (Applied Biosystems). Linearity of the calibration curve was proven from 0.1-50 ng/ml. The coefficient of correlation for all measured sequences was at least 0.99. The intra-day and inter-day variability was <10%.

With `Nc1cc(O)nc(N)n1` [DAHP, 2,4-Diamino-6-hydroxypyrimidine], the “GTPCH-1 expression in DRG” value in experiment [1] was “does not affect GTPCH-1 expression”. Further, the thermal hyperalgesia result is reported as “reduced thermal hyperalgesia” in experiment [2] (DAHP 1 mg/kg i.t. via lumbar spinal catheter) and “reduced thermal hyperalgesia” in experiment [2] (DAHP 180 mg/kg i.p., 30 min before or 24 h after CFA). Besides, the “paw withdrawal latency of the non-inflamed contralateral paw” value in experiment [2] (DAHP 180 mg/kg i.p.) was “no effect”. In addition, the “inflammatory paw edema (paw weight)” value in experiment [2] (DAHP treated vs control, 48 hours after CFA) was “no difference in the degree of paw inflammation”. Moreover, the “anti-nociceptive effects in nNOS knockout vs wild-type mice” value in experiment [3] is “do not differ between nNOS knockout mice and wild-type mice”. The “analgesic effects in CCI model” value in experiment [4] is given as “analgesic effects of DAHP were further confirmed”. The “flinching behavior in the formalin assay” value in experiment [5] (single i.p. dose of 180 mg/kg) is “reduced the flinching behavior”. Moreover, the “c-FOS immunoreactivity in ipsilateral dorsal horn neurons” value in experiment [5] (two hours after formalin, intraperitoneal DAHP, p<0.05) is “significantly reduced elevation”. Further, the “apoptosis of dorsal horn neurons (TUNEL)” value in experiment [6] was “protects dorsal horn neurons from apoptosis”. For the same compound, the “biopterin increases after SNI” value in experiment [7] (DH, DRG, ScN) is “reversed in the DH and the ScN, but not the DRG”. Also, in experiment [7] (DRG and ScN), the “neopterin increases after SNI” value is given as “reversed”.
